Results reported in patent publication US20070134221A1, “Stabilizing peptides” (priority 2003, published 2007).
pIC50: −log10 of the molar value. Where two headings read alike, the source gives them in different places.

Columns and labels:
[1] = Circular dichroism spectroscopy; assay type: physicochemical; conditions: 10 μM peptide, 50 mM Tris-HCl (pH 8.0), 10 mM NaCl, 4° C.
Method: CD measurements of the peptides were carried out on an Aviv 62 DS circular dichroism spectrometer (Aviv Biomedical, Lakewood, N.J.). Peptides were dissolved in 50 mM Tris-HCl (pH 8.0) and 10 mM NaCl with a total peptide concentration of 10 μM. The wavelength dependence of molar ellipticity, [θ], was monitored at 4° C. as the average of five scans, using a five-second integration time at 1.0 nm wavelength increments. Spectra were baseline-corrected against the cuvette with buffer alone. […] Thermal stability was determined by monitoring the change in CD signal at 222 nm as a function of temperature, and thermal melts were performed in two-degree intervals with a two-minute equilibration at the desired temperature, and an integration time of 30 s. Reversibility was checked by repeated scans.

HIV-1 NL4-3 = assay type: cell-based
Method: (§1) PBMC Infectivity Assay. PBMC were isolated from healthy blood donors by Ficoll-Hypaque centrifugation and then stimulated for 2-3 days with phytohemagglutinin (5 μg/ml) and interleukin-2 (100 U/ml). The inhibition assay was performed essentially as described previously (Trkola, A., T. Ketas, V. N. KewalRamani, F. Endorf, J. M. Binley, H. Katinger, J. Robinson, D. R. Littman, and J. P. Moore. 1998. Neutralization sensitivity of human immunodeficiency virus type 1 primary isolates to antibodies and CD4-based reagents is independent of co-receptor usage. J. Virol. 72:1876-1885; Trkola, A., W. A. Paxton, S. P. Monard, J. A. Hoxie, M. A. Siani, D. A. Thompson, L. Wu, C. R. Mackay, R. Horuk, and J. P. Moore. 1998. Genetic subtype-independent inhibition of human immunodeficiency virus type 1 replication by CC and CXC chemokines. J. Virol. 72:396-404).
(§2) Briefly, the virus inoculum was adjusted to 400-1,000 TCID50/ml in assay medium (RPMI 1640, 10% FCS, 100 U of interleukin-2 per ml, glutamine, and peptides), and 50 μl aliquots were incubated with serial dilutions of the peptide inhibitors (50 μl) for 1 h at 37° C. […] RBMC (4×10^5 in 100 μl of medium) were then added. The final concentration of virus in the cultures was 20-50 TCID50/well, corresponding to 100-250 TCID50/ml. Peptides, virus, and cells were then incubated for 5-7 days at 37° C., and the extent of viral replication was determined by p24 antigen ELISA of the culture supernatants. The viral inocula in 50% tissue culture infectious doses (TCID50) were 400-1000/ml.

HIV-1 DJ258 = assay type: cell-based; conditions: human PBMC, 5-7 days, p24 ELISA; second line of the isolate = second separate assay; read-out: Antiviral activity IC50, HIV-1 DJ258
Method: as §1, §2

HIV-1 BZ162 = assay type: cell-based; conditions: human PBMC, 5-7 days, p24 ELISA; second line of the isolate = second separate assay; read-out: Antiviral activity IC50, HIV-1 BZ162
Method: as §1, §2

HIV-1 94ZW103 = assay type: cell-based
Method: as §1, §2

HIV-1 CM.235 = assay type: cell-based; conditions: human PBMC, 5-7 days, p24 ELISA; second line of the isolate = second separate assay; read-out: Antiviral activity IC50, HIV-1 CM.235
Method: as §1, §2

HIV-1 Case C 7/86 = assay type: cell-based; conditions: human PBMC, 5-7 days, p24 ELISA; second line of the isolate = second separate assay; read-out: Antiviral activity IC50, HIV-1 Case C 7/86
Method: as §1, §2

HIV-1 UG270 = assay type: cell-based
Method: as §1, §2

HIV-1 JFRL = assay type: cell-based
Method: as §1, §2

[2] = human PBMC, 5-7 days, p24 ELISA, second line of the isolate = second separate assay, read-out: Antiviral activity IC50, HIV-1 NL4-3
[3] = human PBMC, 5-7 days, p24 ELISA, second line of the isolate = second separate assay, read-out: Antiviral activity IC50, HIV-1 94ZW103
[4] = human PBMC, 5-7 days, p24 ELISA, second line of the isolate = second separate assay, read-out: Antiviral activity IC50, HIV-1 UG270
[5] = human PBMC, 5-7 days, p24 ELISA, second line of the isolate = second separate assay, read-out: Antiviral activity IC50, HIV-1 JFRL

Compound	Structure in solution by circular dichroism [1]	pIC50 (HIV-1 NL4-3; [2])	pIC50 (HIV-1 DJ258)	pIC50 (HIV-1 BZ162)	pIC50 (HIV-1 94ZW103; [3])	pIC50 (HIV-1 CM.235)	pIC50 (HIV-1 Case C 7/86)	pIC50 (HIV-1 UG270; [4])	pIC50 (HIV-1 JFRL; [5])	pIC50 (HIV-1 NL4-3; NL4-3)	pIC50 (HIV-1 94ZW103; 94ZW103)	pIC50 (HIV-1 UG270; UG270)	pIC50 (HIV-1 JFRL; JFRL)
CC[C@H](C)[C@H](NC(=O)[C@H](CCCCN)NC(=O)[C@@H](NC(=O)[C@H](CC(N)=O)NC(=O)[C@H](Cc1ccccc1)NC(=O)[C@H](Cc1c[nH]c2ccccc12)NC(=O)[C@H](CC(N)=O)NC(=O)[C@H](Cc1c[nH]c2ccccc12)NC(=O)[C@H](CC(C)C)NC(=O)[C@H](CO)NC(=O)[C@H](C)NC(=O)[C@H](Cc1c[nH]c2ccccc12)NC(=O)[C@H](CCCCN)NC(=O)[C@H](CC(=O)O)NC(=O)[C@H](CC(C)C)NC(=O)[C@H](CCC(=O)O)NC(=O)[C@H](CC(C)C)NC(=O)[C@H](CC(C)C)NC(=O)[C@H](CCC(=O)O)NC(=O)[C@H](CCC(N)=O)NC(=O)[C@H](CCC(=O)O)NC(=O)[C@H](CC(N)=O)NC(=O)[C@H](CCCCN)NC(=O)[C@H](CCC(=O)O)NC(=O)[C@H](CCC(N)=O)NC(=O)[C@H](CC(C)C)NC(=O)[C@H](CC(N)=O)NC(=O)[C@H](CCC(N)=O)NC(=O)[C@H](CO)NC(=O)[C@H](CCC(=O)O)NC(=O)[C@H](CCC(=O)O)NC(=O)[C@@H](NC(=O)[C@H](CC(C)C)NC(=O)[C@H](CO)NC(=O)[C@H](Cc1c[nH]cn1)NC(=O)[C@@H](NC(=O)[C@H](CC(C)C)NC(=O)[C@H](CO)NC(=O)[C@@H](NC(=O)[C@H](Cc1ccc(O)cc1)NC(=O)[C@H](CC(N)=O)NC(=O)[C@H](CC(N)=O)NC(=O)[C@@H](NC(=O)[C@H](CCC(=O)O)NC(=O)[C@H](CCCNC(=N)N)NC(=O)[C@H](CC(=O)O)NC(=O)[C@H](Cc1c[nH]c2ccccc12)NC(=O)[C@H](CCC(=O)O)NC(=O)[C@H](CCSC)NC(=O)[C@H](Cc1c[nH]c2ccccc12)NC(=O)[C@@H](NC(=O)[C@@H](NC(=O)[C@H](Cc1c[nH]cn1)NC(=O)[C@@H](N)CC(N)=O)[C@@H](C)O)[C@@H](C)O)[C@@H](C)CC)[C@@H](C)O)[C@@H](C)CC)[C@@H](C)CC)[C@@H](C)CC)C(=O)N[C@@H](CCCCN)C(=O)O [Peptide C52F, NHTTWMEWDREINNYTSLIHSLIEESQNLQEKNEQELLELDKWASLWNWFNI-KIK]	forms an α-helical structure in solution	7.64	8.05	8.70	8.40	7.96	7.31	7.17	8.30	–	–	–	–
CC[C@H](C)[C@H](NC(=O)[C@H](CCCCN)NC(=O)[C@@H](NC(=O)[C@H](CC(N)=O)NC(=O)[C@H](Cc1ccccc1)NC(=O)[C@H](Cc1c[nH]c2ccccc12)NC(=O)[C@H](CC(N)=O)NC(=O)[C@H](Cc1c[nH]c2ccccc12)NC(=O)[C@H](CC(C)C)NC(=O)[C@H](CO)NC(=O)[C@H](C)NC(=O)[C@H](Cc1c[nH]c2ccccc12)NC(=O)[C@H](CCCCN)NC(=O)[C@H](CC(=O)O)NC(=O)[C@H](CC(C)C)NC(=O)[C@H](CCC(=O)O)NC(=O)[C@H](Cc1ccccc1)NC(=O)[C@H](CC(C)C)NC(=O)[C@H](CCC(=O)O)NC(=O)[C@H](CCC(N)=O)NC(=O)[C@H](CCC(=O)O)NC(=O)[C@H](C)NC(=O)[C@H](CCCCN)NC(=O)[C@H](CCC(=O)O)NC(=O)[C@H](CCC(N)=O)NC(=O)[C@H](CC(C)C)NC(=O)[C@H](CC(N)=O)NC(=O)[C@H](CCC(N)=O)NC(=O)[C@H](CO)NC(=O)[C@H](CCC(=O)O)NC(=O)[C@H](CCC(=O)O)NC(=O)[C@H](Cc1ccccc1)NC(=O)[C@H](CC(C)C)NC(=O)[C@H](CO)NC(=O)[C@H](Cc1c[nH]cn1)NC(=O)[C@@H](NC(=O)[C@H](CC(C)C)NC(=O)[C@H](CO)NC(=O)[C@@H](NC(=O)[C@H](Cc1ccc(O)cc1)NC(=O)[C@H](CC(N)=O)NC(=O)[C@H](CC(N)=O)NC(=O)[C@@H](NC(=O)[C@H](CCC(=O)O)NC(=O)[C@H](CCCNC(=N)N)NC(=O)[C@H](CC(=O)O)NC(=O)[C@H](Cc1c[nH]c2ccccc12)NC(=O)[C@H](CCC(=O)O)NC(=O)[C@H](CCSC)NC(=O)[C@H](Cc1c[nH]c2ccccc12)NC(=O)[C@@H](NC(=O)[C@@H](NC(=O)[C@H](Cc1c[nH]cn1)NC(=O)[C@@H](N)CC(N)=O)[C@@H](C)O)[C@@H](C)O)[C@@H](C)CC)[C@@H](C)O)[C@@H](C)CC)[C@@H](C)CC)C(=O)N[C@@H](CCCCN)C(=O)O [Peptide C52L, NHTTWMEWDREINNYTSLIHSLFEESQNLQEKAEQELFELDKWASLWNWFNI-KIK]	forms an α-helical structure in solution	7.70	7.96	8.52	8.52	7.92	7.77	7.21	8.22	–	–	–	–
Enfuvirtide	–	–	–	–	–	–	–	–	–	7.36	7.74	6.86	8.00
